Common to all, as to test: MTT cell viability assay, combinations (Chou-Talalay method)
Type in all cases: cell-based

One assay relates to H3122 Cells. As to conditions: for IC50: Homo sapiens. How it is done:
(§1) The combinations comprising the compound of formula (1) were tested using an MTT proliferation assay in a panel of tumor cell lines of different origins. All culture materials were obtained from the sources described in Example 2. In the Chou-Talalay method, which is the standard, universally known methodology to determine drug interactions, the two drugs under study are maintained at a fixed ratio of IC50 single agent (drug 1):IC50 single agent (drug 2) while the concentration of total amount of drugs in the combination is varied and the 20% (IC20), 50% (IC50) and 80% (IC80) of growth inhibition of the combination is determined.
(§2) In the activity assays on cell lines the following terms are used: • IC50: Drug concentration at which 50% growth inhibition is achieved. • TKI IC50: The IC50 of the tyrosine kinase inhibitor as single agent. • Compound (1) IC50: The IC50 of compound (1) as single agent. • CI@IC20: The combination index of the combination consisting of drug 1 and drug 2 at a weight ratio equal to IC50 of drug 1:IC50 of drug 2 wherein said combination is used at a total amount that achieves 20% of growth inhibition. • CI@IC50: The combination index of the combination consisting of drug 1 and drug 2 at a weight ratio equal to IC50 of drug 1:IC50 of drug 2, wherein said combination is used at a total amount that achieves 50% of growth inhibition. • CI@IC80: The combination index of the combination consisting of drug 1 and drug 2 at a weight ratio equal to IC50 of drug 1:IC50 of drug 2, wherein said combination is used at a total amount that achieves 80% of growth inhibition. • Combination TKI IC50: The combination index at a tyrosine kinase inhibitor concentration that corresponds to the IC50 (single agent). • The combination index (CI) concept was introduced by Chou T.C. and Talalay P.(Chou TC, Talalay P. Adv Enzyme Regul 1984;22:27-55). The derived combination index equation for two drugs is (D = dosage or concentration): CI = ((D)1)/((Dx)1) + ((D)2)/((Dx)2) [formula] where (Dx)1 is the concentration of drug 1 "alone" that inhibits growth at a x% (i.e. (D50)1 is the concentration of drug 1 "alone" that inhibits growth at a 50%), (Dx)2 is the concentration of drug 2 "alone" that inhibits growth at a x%, (D)1 and (D)2 refer to the concentration of drug 1 and drug 2, respectively, in the combination, wherein the combination inhibits growth at the same x%. The CI Value quantitatively defines synergism (CI<1) (in particular, CI values of CI<0.7 indicates strong synergism, 0.7<CI<0.85 indicates moderate synergism, 0.85<CI<1 indicates slight synergism), additive effect (CI=1) and antagonism (CI>1). Based on the above equation, a plot of CI values at different effect levels (fa's) can be determined. Entering a series of "dose" ((D1), (D2), ((Dx)1 and (Dx)2) and % of growth inhibition (%x or effect (fa))" into an excel sheet for each drug alone and their combinations, the CI values at different x% (or fa levels) are obtained using the above equation. This plot is also called the Fa-CI plot or the Chou-Talalay plot.
(§3) Cell viability in response to combination treatment was assessed by the Thiazolyl Blue Tetrazolium Bromide (MTT) (Sigma, St Louis, MO) assay. Cells from each cell line were seeded at 2000 to 10000 per well in 96-well plates. […] Twenty-four hours after seeding, cells were exposed to compound (1), commercial drug or combinations thereof for 72 h. In the Chou-Talalay method, which is the standard, universally known methodology to determine drug interactions, the two drugs under study are maintained at a fixed ratio IC50 single agent (drug 1):IC50 single agent (drug 2).
(§4) After treatment, cells were incubated with medium containing MTT (0.75 mg/mL in medium) for 1-2 h at 37°C. Culture medium with MTT was removed and formazan crystals reabsorbed in 100 µL DMSO (Sigma, St. Louis, MO). Cell viability was determined by measuring the absorbance at 492 nm, using a microplate reader (BioWhittaker, Walkersville, MD).

A further assay relates to HCC78 cells. The method, then:
as §1, §2, §3, §4

Another assay relates to H2228 Cells. As to conditions: Homo sapiens, H2228 cells. How it is done: as §1, §2, §3, §4
The mark [1] stands for this setting: NCI-H3122, 72 h, H3122 cells, tyrosine kinase inhibitor as single agent, 72 h, read-out: TKI IC50.
The mark [2] stands for this setting: Homo sapiens, HCC78, 72 h, HCC78 cells, tyrosine kinase inhibitor as single agent, 72 h, read-out: TKI IC50.

Like-named read-outs stand apart in the source and are kept apart here.

With `CCc1cc2c(cc1N1CCC(N3CCOCC3)CC1)C(C)(C)c1[nH]c3cc(C#N)ccc3c1C2=O` [Alectinib, 9-ethyl-6,6-dimethyl-8-(4-morpholinopiperidin-1-yl)-11-oxo-6,11-dihydro-5H-benzo[b]carbazole-3-carbonitrile], in the assay on H3122 Cells (H3122 cells, TKI single agent vs with compound (1)), the “Fold change in the TKI IC50” value is recorded as 3.355 fold. Also, the IC50 was 50 nM in the assay with H3122 Cells (setting [1]) and 15 nM with H3122 Cells (NCI-H3122, H3122 cells, TKI in combination with compound (1), read-out: Combination TKI IC50).

As to `C[C@@H](Oc1cc(-c2cnn(C3CCNCC3)c2)cnc1N)c1c(Cl)ccc(F)c1Cl` [Crizotinib, 3-[(1R)-1-(2,6-dichloro-3-fluorophenyl)ethoxy]-5-(1-piperidin-4-ylpyrazol-4-yl)pyridin-2-amine], the IC50 in the assay with HCC78 cells (HCC78 cells, tyrosine kinase inhibitor as single agent, 72 h, read-out: TKI IC50) turned out to be 7160 nM; in the assay on HCC78 cells (setting [2]), 7200 nM; in the assay on HCC78 cells (Homo sapiens, HCC78, read-out: Combination TKI IC50, HCC78 cells, TKI in combination with compound (1)) it was 250 nM; with HCC78 cells (read-out: Combination TKI IC50, HCC78 cells, TKI in combination with compound (1)), 249 nM; in the assay on H3122 Cells (setting [1]), 190 nM; in the assay on H3122 Cells (NCI-H3122, read-out: IC50 of crizotinib in presence of compound of formula (1), H3122 cells, combination with compound (1)) it was 29 nM. The IC50 in the assay on H2228 Cells (NCI-H2228, read-out: IC50 of crizotinib when compound of formula (1) was also administered, combination with compound (1)) turned out to be 53 nM; in the assay with H2228 Cells (NCI-H2228, tyrosine kinase inhibitor as single agent, 72 h, read-out: TKI IC50) it was 250 nM.

With `COc1cc2c(Oc3ccc(NC(=O)C4(C(=O)Nc5ccc(F)cc5)CC4)cc3F)ccnc2cc1OCCCN1CCOCC1` [Foretinib, N^1'-[3-fluoro-4-[[6-methoxy-7-(3-morpholinopropoxy)-4-quinolyl]oxy]phenyl]-N'-(4-fluorophenyl)cyclopropane-1,1-dicarboxamide], in the assay on HCC78 cells (HCC78 cells, TKI single agent vs with compound (1)), the “Fold change in the TKI IC50” value is reported as 2.846 fold. Further, the IC50 in the assay with HCC78 cells (setting [2]) worked out at 370 nM; in the assay with HCC78 cells (Homo sapiens, HCC78, HCC78 cells, TKI in combination with compound (1), read-out: Combination TKI IC50) it was 130 nM.
